Entries after “also recorded” stand apart in the source; their conditions may differ. Read-outs that look alike come from different tables or passages of the source.
Legend:
[1] = test system: 3T3-L1 adipocytes; test: Acylglyceride synthesis in 3T3-L1 adipocytes ([14C]palmitate labelling, TLC); assay type: cell-based, mouse; conditions: for IC50: Mus musculus, 3T3-L1 adipocytes 7 days post-differentiation, 18 h treatment, linear regression, n=3
Method: 3T3-L1 Adipocytes 3T3-L1 cells were differentiated into adipocytes as described 34. Seven days post-differentiation, cells were treated with FSG67 at indicated concentrations for 18 h, then labeled with [14C]palmitate for 2 h. Following Folch extraction, lipids were subjected to polar and non-polar thin-layer chromatography 35. Triglyceride and phosphatidylcholine fractions were quantified with phosphorimaging (Storm 840, Molecular Dynamics, Piscataway, N.J.).
Mouse 3T3-L1 adipocytes were used to test the effect FSG67 on acylglyceride synthesis in vitro. […] As phosphatidylcholine was the predominant phospholipid synthesized in the 3T3-L1 adipocytes, it is representative of overall cellular phospholipid synthesis. […] Note the decrease in lipid droplets in the FSG67 treated cells compared to vehicle treated controls. Thus, FSG67 inhibits cellular acylglyceride synthesis with an IC50 similar to its inhibition of GPAT activity in mitochondrial preparations.

[2] = test system: DIO mice; test: 5-day dose ranging study in DIO mice; assay type: in vivo, mouse; conditions: 5 days
Method: To determine the dose of FSG67 suitable for chronic treatment, we performed a 5-day dose ranging study in DIO mice, four per group, with daily intraperitoneal doses of 1, 2, and 5 mg/kg (FIG. 17). The 5 mg/kg dose led to significant weight loss of 3.9% compared to vehicle controls (p=0.008, 2-way ANOVA). This dose was chosen for the subsequent chronic treatment experiments.

[3] = test system: lipogenic gene expression; test: Real-time RT-PCR gene expression in liver and white adipose tissue of 16 d treated DIO mice; assay type: in vivo, mouse
Method: Real-time RT-PCR. Hypothalamus, liver, and WAT of DIO and lean mice were harvested and immediately frozen in liquid nitrogen. Total RNA was isolated and real-time quantitative RT-PCR was performed as previously described (13). Gene-specific primer pairs were designed using Primer3 software (http://www-genome.wi.mit.edu/cgi-bin/primer/primer3_www.cgi/). The sequences of the primer pairs are listed in Supplemental Data Table 1.
To further explore the mechanism responsible for the reduction in adipose tissue mass, we used real-time RT-PCR to measure the expression of the following key lipogenic genes in white adipose tissue from vehicle control, pair-fed, and FSG67 treated DIO mice from the second indirect calorimetry trial (see FIG. 12c): fatty acid synthase (FAS), responsible for the de novo reductive synthesis of fatty acid 13, acetyl-CoA carboxylase 1 (ACC1), the cytoplasmic isoform of ACC expressed in lipogenic organs that synthesizes malonyl-CoA used as a substrate of FAS for fatty acid synthesis 14, peroxisome proliferator-activated receptor gamma (PPARγ) a key transcription factor for adipogenesis 15, lipid partitioning 16, and postprandial lipid storage 17, and GPAT. […] (FIG. 19). Thus, pharmacological GPAT inhibition not only increases fatty acid oxidation and reduces food intake, but up-regulates UCP2 in liver and white adipose tissue while down-regulating lipogenic gene expression in white adipose tissue, all of which should favor a selective decrease in adiposity. […]

[4] = target: T1, mouse mitochondrial GPAT (Mus musculus, UniProt Q61586); conditions: reference 12; read-out: reported IC50 for mouse mitochondrial GPAT activity; cited from earlier work
T1 sequence (Q61586 1-827): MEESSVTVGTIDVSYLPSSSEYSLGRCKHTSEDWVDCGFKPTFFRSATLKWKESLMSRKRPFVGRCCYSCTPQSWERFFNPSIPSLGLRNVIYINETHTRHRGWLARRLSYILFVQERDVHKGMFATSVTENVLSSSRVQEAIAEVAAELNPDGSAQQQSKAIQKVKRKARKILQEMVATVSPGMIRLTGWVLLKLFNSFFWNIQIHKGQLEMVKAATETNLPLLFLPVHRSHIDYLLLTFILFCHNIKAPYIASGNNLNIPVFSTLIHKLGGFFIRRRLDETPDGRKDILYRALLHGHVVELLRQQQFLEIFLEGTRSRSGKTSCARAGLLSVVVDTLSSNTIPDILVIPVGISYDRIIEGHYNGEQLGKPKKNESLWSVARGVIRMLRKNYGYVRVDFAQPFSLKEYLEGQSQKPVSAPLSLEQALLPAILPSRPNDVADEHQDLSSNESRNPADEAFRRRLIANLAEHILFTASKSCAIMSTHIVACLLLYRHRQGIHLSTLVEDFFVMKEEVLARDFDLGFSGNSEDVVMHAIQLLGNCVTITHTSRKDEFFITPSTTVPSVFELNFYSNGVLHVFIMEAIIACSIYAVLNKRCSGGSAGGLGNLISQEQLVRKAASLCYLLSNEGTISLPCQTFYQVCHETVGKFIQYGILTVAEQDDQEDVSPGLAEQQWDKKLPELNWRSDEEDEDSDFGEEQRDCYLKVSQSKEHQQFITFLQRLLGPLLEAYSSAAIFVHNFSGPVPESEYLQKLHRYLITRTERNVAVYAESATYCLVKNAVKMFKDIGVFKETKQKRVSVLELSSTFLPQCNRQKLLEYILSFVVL

[5] = vs control and pair-fed, listed as FSG67

CCCCCCCCCS(=O)(=O)Nc1ccccc1C(=O)O [Compound 15g, 2-(Nonylsulfonamido)benzoic acid]
triglyceride / lipid droplet accumulation ([1]; 3T3-L1 adipocytes, 48 h following treatment, photomicrographs, listed as FSG67): dose-dependent reduction; also recorded: reduction in lipid droplet accumulation | IC50 ([1]; read-out: IC50 for cellular triglyceride synthesis): 33.9 µM | IC50 ([1]; read-out: IC50 for phosphatidylcholine synthesis): 36.3 µM | weight loss compared to vehicle controls ([2]; 5 mg/kg ip daily): 3.9% | minimum dose that led to significant weight loss ([2]; daily ip, doses 1, 2, 5 mg/kg): 5 mg/kg | GPAT expression in liver ([3]; listed as FSG67): unaffected | L-CPT-1 expression in liver and WAT ([3]; listed as FSG67): unaffected; also recorded: not affected | UCP2 expression in liver ([3]; vs control): increased | ACC1 expression in white adipose tissue [3, 5]: substantial down-regulation; also recorded: down regulated | FAS expression in white adipose tissue [3, 5]: substantial down-regulation; also recorded: down regulated | GPAT expression in white adipose tissue [3, 5]: substantial down-regulation; also recorded: down regulated | PPARγ expression in white adipose tissue [3, 5]: substantial down-regulation; also recorded: down regulated | UCP2 expression in WAT ([3]; vs pair-fed): increased | ACC1 expression in liver ([3]; vs pair-fed, listed as FSG67): significant reduction; also recorded: reduced | FAS expression in liver ([3]; vs vehicle and pair-fed, listed as FSG67): significant reduction; also recorded: reduced | IC50 [4]: 24.7 µM

From patent publication US20120083471A1, “Novel Compounds, Pharmaceutical Compositions Containing Same, Methods of Use for Same, and Methods for Preparing Same” (priority 2008, published 2012)
